From patent US7345070B2, “Peroxisome proliferator activated receptor agonists” (Eli Lilly and Company, priority 2000, dated 2008) come the findings set out here.

Test [1] deals with T1, huPPARγ (Homo sapiens, UniProt P37231).
T1 sequence (P37231 1-505): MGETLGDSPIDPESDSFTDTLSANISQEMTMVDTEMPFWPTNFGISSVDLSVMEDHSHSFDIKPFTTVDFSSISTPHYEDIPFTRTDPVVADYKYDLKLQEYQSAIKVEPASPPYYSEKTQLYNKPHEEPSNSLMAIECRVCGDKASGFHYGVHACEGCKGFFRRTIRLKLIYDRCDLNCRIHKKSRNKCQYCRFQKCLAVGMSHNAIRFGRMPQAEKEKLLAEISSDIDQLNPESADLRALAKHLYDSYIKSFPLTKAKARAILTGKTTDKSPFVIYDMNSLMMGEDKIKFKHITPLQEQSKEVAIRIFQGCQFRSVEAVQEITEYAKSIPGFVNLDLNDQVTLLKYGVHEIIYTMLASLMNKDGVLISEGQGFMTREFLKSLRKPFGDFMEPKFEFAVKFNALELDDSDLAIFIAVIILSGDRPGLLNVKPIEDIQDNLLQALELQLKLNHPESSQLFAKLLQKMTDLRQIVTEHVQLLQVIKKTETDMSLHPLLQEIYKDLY
T1 sequence (P19793 1-462 partner): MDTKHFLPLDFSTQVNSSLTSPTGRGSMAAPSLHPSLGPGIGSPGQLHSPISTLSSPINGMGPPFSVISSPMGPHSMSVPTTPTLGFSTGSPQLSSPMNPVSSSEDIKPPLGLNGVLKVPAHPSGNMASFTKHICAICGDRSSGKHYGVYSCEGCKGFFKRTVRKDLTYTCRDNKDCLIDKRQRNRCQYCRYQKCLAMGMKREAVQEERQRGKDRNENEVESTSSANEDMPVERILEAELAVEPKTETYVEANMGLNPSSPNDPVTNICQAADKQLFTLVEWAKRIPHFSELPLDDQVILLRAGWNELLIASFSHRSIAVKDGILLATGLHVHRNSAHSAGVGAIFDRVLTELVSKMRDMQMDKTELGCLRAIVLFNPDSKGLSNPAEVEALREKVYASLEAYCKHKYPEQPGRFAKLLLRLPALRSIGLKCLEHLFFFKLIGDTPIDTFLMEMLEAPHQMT
Description: DNA-dependent binding (ABCD binding) using SPA technology, huPPARγ. The conditions noted are these: SPA displacement of tritium-labeled PPARγ agonist radioligand. As for the experimental part: (§1) DNA-dependent binding (ABCD binding) was carried out using SPA technology with PPAR receptors. Tritium-labeled PPARα and PPARγ agonists were used as radioligands for generating displacement curves and IC50 values with compounds of the invention. Cotransfection assays were carried out in CV-1 cells. The reporter plasmid contained an acylCoA oxidase (AOX) PPRE and TK promoter upstream of the luciferase reporter cDNA. Appropriate PPARs and RXRα were constitutively expressed using plasmids containing the CMV promoter. […] In order to eliminate such interference, a GAL4 chimeric system was used in which the DNA binding domain of the transfected PPAR was replaced by that of GAL4, and the GAL4 response element was utilized in place of the AOX PPRE. Cotransfection efficacy was determined relative to PPARα agonist and PPARγ agonist reference molecules. Efficacies were determined by computer fit to a concentration-response curve, or in some cases at a single high concentration of agonist (10 μM). For binding or cotransfection studies with receptors other than PPARs, similar assays were carried out using appropriate ligands, receptors, reporter constructs, etc., for that particular receptor.
(§2) These studies were carried out to evaluate the ability of compounds of the invention to bind to and/or activate various nuclear transcription factors, particularly huPPARα (“hu” indicates “human”) and huPPARγ. These studies provide in vitro data concerning efficacy and selectivity of compounds of the invention. Furthermore, binding and cotransfection data for compounds of the invention were compared with corresponding data for marketed compounds that act on either huPPARα or huPPARγ.

Test [2] has as its target T1, huPPARγ. As to the kind of experiment: Cotransfection assay in CV-1 cells, huPPARγ. More on the design: Appropriate PPARs and RXRα were constitutively expressed using plasmids containing the CMV promoter; expressed in transfected cells; host or cells: CV-1 cells. It is filed as cell-based. As to conditions: AOX PPRE luciferase reporter, relative to PPARγ agonist reference molecule, read-out: huPPARγ CTF Efficacy. As for the experimental part:
as §1, §2

A further test concerns the target T2, huPPARα (Homo sapiens, UniProt Q07869).
T2 sequence (Q07869 1-468): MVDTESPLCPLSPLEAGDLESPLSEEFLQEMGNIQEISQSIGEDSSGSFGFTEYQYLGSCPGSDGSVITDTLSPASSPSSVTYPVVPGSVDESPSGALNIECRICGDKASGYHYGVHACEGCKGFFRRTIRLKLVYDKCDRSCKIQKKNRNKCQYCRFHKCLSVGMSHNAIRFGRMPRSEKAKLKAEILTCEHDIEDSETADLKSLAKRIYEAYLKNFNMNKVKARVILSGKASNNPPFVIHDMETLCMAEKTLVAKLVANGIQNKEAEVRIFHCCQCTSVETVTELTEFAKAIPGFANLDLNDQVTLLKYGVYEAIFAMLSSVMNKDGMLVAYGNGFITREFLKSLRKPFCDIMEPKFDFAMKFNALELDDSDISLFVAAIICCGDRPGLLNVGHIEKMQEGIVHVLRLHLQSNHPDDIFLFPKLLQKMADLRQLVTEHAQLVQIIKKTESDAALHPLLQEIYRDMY
T2 sequence (P19793 1-462 partner): T1 sequence (P19793 1-462 partner)
Description: DNA-dependent binding (ABCD binding) using SPA technology, huPPARα. The conditions noted are these: SPA displacement of tritium-labeled PPARα agonist radioligand. As for the experimental part:
as §1, §2

The IC50 is the concentration that gives 50% inhibition. A high value points to lower potency. As for `Cc1oc(C2CCCCC2)nc1CCOc1ccc(CC(C)(Oc2ccc(C(F)(F)F)cc2)C(=O)O)cc1` (stereo not drawn) [Example 52, 3-{4-[2-(2-Cyclohexyl-5-methyl-oxazol-4-yl)-ethoxy]-phenyl}-2-methyl-2-(4-trifluoromethyl-phenoxy)-propionic acid], the IC50 came to 0.076 µM at huPPARγ [1] and 0.062 µM on huPPARα. Also, on huPPARγ [2], the Emax was 61%.
For `Cc1oc(C2CCCCC2)nc1CCOc1ccc(CC(C)(Oc2ccc(F)c(F)c2)C(=O)O)cc1` (stereo not drawn) [Example 58, 3-{4-[2-(2-Cyclohexyl-5-methyl-oxazol-4-yl)-ethoxy]-phenyl}-2-(3,4-difluoro-phenoxy)-2-methyl-propionic acid] the same measures were 0.066 µM, 0.06 µM and 41%.
For `Cc1cccc(OC(C)(Cc2ccc(OCCc3nc(-c4cccs4)oc3C)cc2)C(=O)O)c1` (stereo not drawn) [Example 61, 2-Methyl-3-{4-[2-(5-methyl-2-thiophen-2-yl-oxazol-4-yl)-ethoxy]-phenyl}-2-m-tolyloxy-propionic acid] the same measures were 0.084 µM, 0.064 µM and 12%.
For `Cc1cccc(OC(C)(Cc2ccc(OCCc3nc(C4CCCCC4)oc3C)cc2)C(=O)O)c1` (stereo not drawn) [Example 62, 3-{4-[2-(2-Cyclohexyl-5-methyl-oxazol-4-yl)-ethoxy]-phenyl}-2-methyl-2-m-tolyloxy-propionic acid], the IC50 at huPPARγ [1] came out at 0.079 µM; at huPPARα, 0.058 µM. The Emax on huPPARγ [2] stood at 35%.
Regarding `Cc1oc(-c2cccs2)nc1CCOc1ccc(CC(C)(Oc2ccc(F)cc2)C(=O)O)cc1` (stereo not drawn) [Example 64, 2-(4-Fluoro-phenoxy)-2-methyl-3-{4-[2-(5-methyl-2-thiophen-2-yl-oxazol-4-yl)-ethoxy]-phenyl}-propionic acid], the IC50 was 0.112 µM at huPPARγ [1] and 0.067 µM on huPPARα. Besides, the Emax on huPPARγ [2] is 11%.
As to `Cc1oc(C2CCCCC2)nc1CCOc1ccc(CC(C)(Oc2ccc(F)cc2)C(=O)O)cc1` (stereo not drawn) [Example 65, 3-{4-[2-(2-Cyclohexyl-5-methyl-oxazol-4-yl)-ethoxy]-phenyl}-2-(4-fluoro-phenoxy)-2-methyl-propionic acid], the IC50 at huPPARγ [1] is 0.082 µM; on huPPARα, 0.071 µM. In addition, the Emax at huPPARγ [2] is 24%.
`Cc1oc(C2(C)CCCCC2)nc1CCOc1ccc(C[C@](C)(Oc2ccc(F)cc2)C(=O)O)cc1` [Example 67, (S)-2-(4-Fluoro-phenoxy)-2-methyl-3-(4-{2-[5-methyl-2-(1-methyl-cyclohexyl)-oxazol-4-yl]-ethoxy}-phenyl)-propionic acid]: the IC50 on huPPARγ [1] turned out to be 0.065 µM; on huPPARα, 0.061 µM. The Emax on huPPARγ [2] worked out at 11%.
For `Cc1oc(-c2cccs2)nc1CCOc1ccc(CC(C)(Oc2cccc(C(F)(F)F)c2)C(=O)O)cc1` (stereo not drawn) [Example 71, 2-Methyl-3-{4-[2-(5-methyl-2-thiophen-2-yl-oxazol-4-yl)-ethoxy]-phenyl}-2-(3-trifluoromethyl-phenoxy)-propionic acid] the same measures were 0.081 µM, 0.078 µM and 50%.
For `COc1cccc(OC(C)(Cc2ccc(OCCc3nc(C4CCCCC4)oc3C)cc2)C(=O)O)c1` (stereo not drawn) [Example 76, 3-{4-[2-(2-Cyclohexyl-5-methyl-oxazol-4-yl)-ethoxy]-phenyl}-2-(3-methoxy-phenoxy)-2-methyl-propionic acid] the same measures were 0.083 µM, 0.076 µM and 24%.
Consider `Cc1oc(-c2ccccc2)nc1CCOc1ccc(CC(C)(Oc2ccc3c(c2)OCO3)C(=O)O)cc1` (stereo not drawn) [Example 78, 2-(Benzo[1,3]dioxol-5-yloxy)-2-methyl-3-{4-[2-(5-methyl-2-phenyl-oxazol-4-yl)-ethoxy]-phenyl}-propionic acid], for which the IC50 on huPPARγ [1] was found to be 0.089 µM; on huPPARα, 0.075 µM. Besides, the Emax on huPPARγ [2] came to 17%.
On to `Cc1oc(C2CCCCC2)nc1CCOc1ccc(CC(C)(Oc2ccc3c(c2)OCO3)C(=O)O)cc1` (stereo not drawn) [Example 80, 2-(Benzo[1,3]dioxol-5-yloxy)-3-{4-[2-(2-cyclohexyl-5-methyl-oxazol-4-yl)-ethoxy]-phenyl}-2-methyl-propionic acid], for which the IC50 on huPPARγ [1] was determined as 0.08 µM; on huPPARα it was 0.076 µM. Besides, at huPPARγ [2], the Emax was determined as 30%.
Consider `Cc1oc(CCc2ccccc2)nc1CCOc1ccc(C[C@](C)(Oc2ccccc2)C(=O)O)cc1` [Example 86, (S)-2-Methyl-3-{4-[2-(5-methyl-2-phenethyl-oxazol-4-yl)-ethoxy]-phenyl}-2-phenoxy-propionic acid], for which the IC50 at huPPARγ [1] is 0.072 µM; on huPPARα, 0.055 µM. Also, the Emax on huPPARγ [2] worked out at 7%.
For `Cc1oc(-c2ccccc2)nc1CCCc1ccc(CC(C)(Oc2ccccc2)C(=O)O)s1` (stereo not drawn) [Example 91, 2-Methyl-3-{5-[3-(5-methyl-2-phenyl-oxazol-4-yl)-propyl]-thiophen-2-yl}-2-phenoxy-propionic acid] the same measures were 0.051 µM, 0.215 µM and 62%.
